Results taken from PMC12064818, “A general assay platform to study protein pharmacology using ligand-dependent structural dynamics” (Nature Communications, 2025).

Target: firefly luciferase (FLuc) (Photinus pyralis, UniProt P08659)
Experiment: Thermal shift profiles (Thermofluor assay), FLuc;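 for Thermofluor FLuc, No ATP: normalized first derivative of fluorescence (dF/dT) at the stated temperature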
Type: binding
Parameters: unit of the concentration uncertain
Conditions: compound 100 (unit uncertain); for Thermofluor FLuc, ATP: ATP (2 (unit uncertain))

firefly luciferase (FLuc), sequence (P08659 whole entry): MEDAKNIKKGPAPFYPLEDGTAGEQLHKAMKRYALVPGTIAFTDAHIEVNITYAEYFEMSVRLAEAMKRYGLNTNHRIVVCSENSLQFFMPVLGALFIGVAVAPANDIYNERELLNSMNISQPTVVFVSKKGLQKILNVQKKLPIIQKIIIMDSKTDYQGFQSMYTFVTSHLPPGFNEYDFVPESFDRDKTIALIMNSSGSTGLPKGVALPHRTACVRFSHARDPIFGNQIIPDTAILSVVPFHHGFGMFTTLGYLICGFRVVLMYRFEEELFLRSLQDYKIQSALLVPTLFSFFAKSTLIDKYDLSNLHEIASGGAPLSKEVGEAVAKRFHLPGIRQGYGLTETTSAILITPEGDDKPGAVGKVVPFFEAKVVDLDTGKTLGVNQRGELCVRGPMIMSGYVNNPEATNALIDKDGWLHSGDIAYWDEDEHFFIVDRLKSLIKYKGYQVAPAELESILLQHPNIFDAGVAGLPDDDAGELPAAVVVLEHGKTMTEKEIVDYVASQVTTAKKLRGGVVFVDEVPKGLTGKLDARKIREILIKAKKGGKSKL

With `CC(CNC(=O)C1CCN(C(=O)c2ncn3c2COC(c2ccccc2)C3)CC1)c1ccccc1` (centres unmarked) [NCGC 00449795] the “Thermofluor FLuc, No ATP” value (20.000 °C) was 0.224, the “Thermofluor FLuc, ATP” value (20.000 °C) was 0.781 and the “Thermofluor FLuc, No ATP” value (20.993 °C) was 0.114. The “Thermofluor FLuc, ATP” value (20.993 °C) was 0.794, the “Thermofluor FLuc, No ATP” value (21.987 °C) was 0.126 and the “Thermofluor FLuc, ATP” value (21.987 °C) was 0.808. The “Thermofluor FLuc, No ATP” value (22.980 °C) was 0.133, the “Thermofluor FLuc, ATP” value (22.980 °C) was 0.818 and the “Thermofluor FLuc, No ATP” value (23.974 °C) was 0.087. The “Thermofluor FLuc, ATP” value (23.974 °C) was 0.824, the “Thermofluor FLuc, No ATP” value (24.967 °C) was 0.106 and the “Thermofluor FLuc, ATP” value (24.967 °C) was 0.824. The “Thermofluor FLuc, No ATP” value (25.960 °C) was 0.064, the “Thermofluor FLuc, ATP” value (25.960 °C) was 0.818 and the “Thermofluor FLuc, No ATP” value (26.954 °C) was 0.085. The “Thermofluor FLuc, ATP” value (26.954 °C) was 0.807, the “Thermofluor FLuc, No ATP” value (27.947 °C) was 0.040 and the “Thermofluor FLuc, ATP” value (27.947 °C) was 0.794. For the same molecule, the “Thermofluor FLuc, No ATP” value (28.940 °C) was 0.026, the “Thermofluor FLuc, ATP” value (28.940 °C) was 0.78 and the “Thermofluor FLuc, No ATP” value (29.934 °C) was 0.058. The “Thermofluor FLuc, ATP” value (29.934 °C) was 0.768, the “Thermofluor FLuc, No ATP” value (30.927 °C) was 0.042 and the “Thermofluor FLuc, ATP” value (30.927 °C) was 0.757. The “Thermofluor FLuc, No ATP” value (31.921 °C) was 0.056, the “Thermofluor FLuc, ATP” value (31.921 °C) was 0.744 and the “Thermofluor FLuc, No ATP” value (32.914 °C) was 0.053. For the same molecule, the “Thermofluor FLuc, ATP” value (32.914 °C) was 0.724, the “Thermofluor FLuc, No ATP” value (33.907 °C) was 0.025 and the “Thermofluor FLuc, ATP” value (33.907 °C) was 0.688. The “Thermofluor FLuc, No ATP” value (34.901 °C) was 0.000, the “Thermofluor FLuc, ATP” value (34.901 °C) was 0.633 and the “Thermofluor FLuc, No ATP” value (35.894 °C) was 0.005. For the same molecule, the “Thermofluor FLuc, ATP” value (35.894 °C) was 0.557, the “Thermofluor FLuc, No ATP” value (36.887 °C) was 0.023 and the “Thermofluor FLuc, ATP” value (36.887 °C) was 0.463. The “Thermofluor FLuc, No ATP” value (37.881 °C) was 0.061, the “Thermofluor FLuc, ATP” value (37.881 °C) was 0.358 and the “Thermofluor FLuc, No ATP” value (38.874 °C) was 0.092. For the same molecule, the “Thermofluor FLuc, ATP” value (38.874 °C) was 0.252, the “Thermofluor FLuc, No ATP” value (39.868 °C) was 0.154 and the “Thermofluor FLuc, ATP” value (39.868 °C) was 0.156. For the same molecule, the “Thermofluor FLuc, No ATP” value (40.861 °C) was 0.218, the “Thermofluor FLuc, ATP” value (40.861 °C) was 0.078 and the “Thermofluor FLuc, No ATP” value (41.854 °C) was 0.347. The “Thermofluor FLuc, ATP” value (41.854 °C) was 0.026, the “Thermofluor FLuc, No ATP” value (42.848 °C) was 0.433 and the “Thermofluor FLuc, ATP” value (42.848 °C) was 0. For the same molecule, the “Thermofluor FLuc, No ATP” value (43.841 °C) was 0.514, the “Thermofluor FLuc, ATP” value (43.841 °C) was 0 and the “Thermofluor FLuc, No ATP” value (44.835 °C) was 0.555. For the same molecule, the “Thermofluor FLuc, ATP” value (44.835 °C) was 0.021, the “Thermofluor FLuc, No ATP” value (45.828 °C) was 0.658 and the “Thermofluor FLuc, ATP” value (45.828 °C) was 0.057. The “Thermofluor FLuc, No ATP” value (46.821 °C) was 0.723, the “Thermofluor FLuc, ATP” value (46.821 °C) was 0.105 and the “Thermofluor FLuc, No ATP” value (47.815 °C) was 0.793. The “Thermofluor FLuc, ATP” value (47.815 °C) was 0.162, the “Thermofluor FLuc, No ATP” value (48.808 °C) was 0.830 and the “Thermofluor FLuc, ATP” value (48.808 °C) was 0.225. The “Thermofluor FLuc, No ATP” value (50.795 °C) was 0.929, the “Thermofluor FLuc, ATP” value (50.795 °C) was 0.362 and the “Thermofluor FLuc, No ATP” value (51.788 °C) was 0.936. For the same molecule, the “Thermofluor FLuc, ATP” value (51.788 °C) was 0.434, the “Thermofluor FLuc, ATP” value (52.782 °C) was 0.507 and the “Thermofluor FLuc, No ATP” value (53.775 °C) was 1.000. The “Thermofluor FLuc, ATP” value (53.775 °C) was 0.578, the “Thermofluor FLuc, No ATP” value (54.768 °C) was 0.997 and the “Thermofluor FLuc, ATP” value (54.768 °C) was 0.643. For the same molecule, the “Thermofluor FLuc, No ATP” value (55.762 °C) was 0.999, the “Thermofluor FLuc, ATP” value (55.762 °C) was 0.699 and the “Thermofluor FLuc, No ATP” value (56.755 °C) was 0.989. For the same molecule, the “Thermofluor FLuc, ATP” value (56.755 °C) was 0.743, the “Thermofluor FLuc, No ATP” value (57.748 °C) was 0.966 and the “Thermofluor FLuc, ATP” value (57.748 °C) was 0.774. The “Thermofluor FLuc, No ATP” value (58.742 °C) was 0.936, the “Thermofluor FLuc, ATP” value (58.742 °C) was 0.793 and the “Thermofluor FLuc, No ATP” value (59.735 °C) was 0.945. For the same molecule, the “Thermofluor FLuc, ATP” value (59.735 °C) was 0.802, the “Thermofluor FLuc, No ATP” value (60.729 °C) was 0.960 and the “Thermofluor FLuc, ATP” value (60.729 °C) was 0.805. The “Thermofluor FLuc, No ATP” value (61.722 °C) was 0.919, the “Thermofluor FLuc, ATP” value (61.722 °C) was 0.804 and the “Thermofluor FLuc, No ATP” value (62.715 °C) was 0.915. The “Thermofluor FLuc, ATP” value (62.715 °C) was 0.801, the “Thermofluor FLuc, No ATP” value (63.709 °C) was 0.911 and the “Thermofluor FLuc, ATP” value (63.709 °C) was 0.797. The “Thermofluor FLuc, No ATP” value (65.695 °C) was 0.892, the “Thermofluor FLuc, ATP” value (65.695 °C) was 0.793 and the “Thermofluor FLuc, No ATP” value (66.689 °C) was 0.889. For the same molecule, the “Thermofluor FLuc, ATP” value (66.689 °C) was 0.799, the “Thermofluor FLuc, No ATP” value (68.676 °C) was 0.909 and the “Thermofluor FLuc, ATP” value (68.676 °C) was 0.827. For the same molecule, the “Thermofluor FLuc, No ATP” value (69.669 °C) was 0.830, the “Thermofluor FLuc, ATP” value (69.669 °C) was 0.847 and the “Thermofluor FLuc, No ATP” value (70.662 °C) was 0.839. The “Thermofluor FLuc, ATP” value (70.662 °C) was 0.865, the “Thermofluor FLuc, No ATP” value (71.656 °C) was 0.811 and the “Thermofluor FLuc, ATP” value (71.656 °C) was 0.881. For the same molecule, the “Thermofluor FLuc, No ATP” value (72.649 °C) was 0.810, the “Thermofluor FLuc, ATP” value (72.649 °C) was 0.893 and the “Thermofluor FLuc, No ATP” value (73.643 °C) was 0.758. The “Thermofluor FLuc, ATP” value (73.643 °C) was 0.901, the “Thermofluor FLuc, No ATP” value (74.636 °C) was 0.788 and the “Thermofluor FLuc, ATP” value (74.636 °C) was 0.906. For the same molecule, the “Thermofluor FLuc, No ATP” value (75.629 °C) was 0.714 and the “Thermofluor FLuc, ATP” value (75.629 °C) was 0.91.
